From patent US9718812B2, “Substituted thiazole or oxazole P2X7 receptor antagonists” (Axxam S.P.A., priority 2014, dated 2017)

How the values were obtained:
[1] = biological target: P2X7 receptor (hP2X7) (Homo sapiens (Human), UniProt Q99572); test: Screen Quest Fluo-8 No Wash Calcium Assay (Bz-ATP-induced Ca2+ influx, FLIPR TETRA); assay type: cell-based; conditions: HEK-293 cells stably transfected with P2X7 receptor, Fluo-8 calcium, Low Divalent Cation Assay Buffer
Summary of the method: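 HEK-293 cells stably transfected with P2X7, pre-loaded with Fluo-8 NW dye for 1 h at RT, then test compounds injected. Ca2+ influx on Bz-ATP stimulation followed as kinetic fluorescence (ex 488 nm, em 515-575 nm) over five minutes.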

[2] = biological target: P2X7 receptor (Homo sapiens (Human), UniProt Q99572); test: YO-PRO-1 Uptake Assay (large pore form, Bz-ATP stimulated); assay type: cell-based; conditions: HEK-293 cells stably transfected with P2X7 receptor; Bz-ATP EC80 (30 μM); 5 μM YO-PRO-1
Sequence of P2X7 receptor (Q99572 whole entry): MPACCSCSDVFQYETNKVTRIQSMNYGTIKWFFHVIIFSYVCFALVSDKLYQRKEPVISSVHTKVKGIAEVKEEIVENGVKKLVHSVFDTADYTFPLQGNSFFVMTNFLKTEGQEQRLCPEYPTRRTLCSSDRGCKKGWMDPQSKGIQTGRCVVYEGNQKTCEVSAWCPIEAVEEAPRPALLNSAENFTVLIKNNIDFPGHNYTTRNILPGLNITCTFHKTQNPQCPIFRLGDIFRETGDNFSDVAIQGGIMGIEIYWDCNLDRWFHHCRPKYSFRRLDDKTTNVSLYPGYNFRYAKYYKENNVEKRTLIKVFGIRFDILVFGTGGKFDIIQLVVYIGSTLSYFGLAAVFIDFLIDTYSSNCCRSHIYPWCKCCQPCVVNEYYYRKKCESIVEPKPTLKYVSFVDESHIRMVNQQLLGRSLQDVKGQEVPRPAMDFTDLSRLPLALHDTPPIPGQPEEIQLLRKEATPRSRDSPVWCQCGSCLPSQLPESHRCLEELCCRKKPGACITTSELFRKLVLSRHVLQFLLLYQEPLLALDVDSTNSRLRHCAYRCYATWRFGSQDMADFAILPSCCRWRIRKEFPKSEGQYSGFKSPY
Summary of the method: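 HEK-293 cells stably expressing P2X7 were preloaded with 5 μM YO-PRO-1 in low divalent cation buffer (0.3 mM Ca2+, 0 mM Mg2+). Compounds were added for 5 min before Bz-ATP at EC80 (30 μM, 3× concentration) and dye-uptake fluorescence was followed for 60 min. IC50 from percent inhibition relative to reference antagonist A438079.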

Sequence of P2X7 receptor (hP2X7) (Q99572 whole entry): as above

IC50 [1] [nM] | IC50 [2] [nM] | SMILES
1020 | 326 | O=C(NCC(c1cnc(C2CCC2)s1)N1CCC(F)(F)CC1)c1cc(-c2ncc(F)cn2)ccc1Cl (stereo not shown) [Compound 111]
60 | 41 | O=C(NCC(c1cnc(C2CCC(F)(F)CC2)s1)N1CCOCC1)c1c(F)cccc1Cl (stereo not shown) [Compound 116, 2-chloro-N-{2-[2-(4,4-difluorocyclohexyl)-1,3-thiazol-5-yl]-2-(morpholin-4-yl)ethyl}-6-fluorobenzamide]
199 | 77 | CCCc1ncc(C(CNC(=O)c2cccc3ncccc23)N2CCC(F)(F)CC2)s1 (stereo not shown) [Compound 108, N-[2-(4,4-difluoropiperidin-1-yl)-2-(2-propyl-1,3-thiazol-5-yl)ethyl]quinoline-5-carboxamide]
114 | 42 | Cc1cccc(Cl)c1C(=O)NCC(c1scnc1C)N1CCOC(c2ccc(F)cc2F)C1 (stereo not shown) [Compound 101, 2-chloro-N-{2-[2-(2,4-difluorophenyl)morpholin-4-yl]-2-(4-methyl-1,3-thiazol-5-yl)ethyl}-6-methylbenzamide]
1120 | 2970 | Cc1nc(C)c(C(CNC(=O)c2cc(-c3ncc(F)cn3)ccc2Cl)N2CCC(F)(F)CC2)o1 (stereo not shown) [Compound 58, 2-chloro-N-[2-(4,4-difluoropiperidin-1-yl)-2-(2,4-dimethyl-1,3-oxazol-5-yl)ethyl]-5-(5-fluoropyrimidin-2-yl)benzamide]
4970 | 2090 | COc1cccc(C(=O)NCC(c2ocnc2C)N2CCC(F)(F)CC2)c1OC (stereo not shown) [Compound 50, N-[2-(4,4-difluoropiperidin-1-yl)-2-(4-methyl-1,3-oxazol-5-yl)ethyl]-2,3-dimethoxybenzamide]
631 | 158 | CCCc1ncc(C(CNC(=O)c2cc(-c3ncc(F)cn3)ccc2Cl)N2CCC(F)(F)CC2)s1 (stereo not shown) [Compound 107, 2-chloro-N-[2-(4,4-difluoropiperidin-1-yl)-2-(2-propyl-1,3-thiazol-5-yl)ethyl]-5-(5-fluoropyrimidin-2-yl)benzamide]
78 | 50 | CCCc1ncc(C(CNC(=O)c2c(F)cccc2Cl)N2CCC(F)(F)CC2)s1 (stereo not shown) [Compound 109, 2-chloro-N-[2-(4,4-difluoropiperidin-1-yl)-2-(2-propyl-1,3-thiazol-5-yl)ethyl]-6-fluorobenzamide]
576 | 1110 | Cc1ncc(C(CNC(=O)c2c(F)cccc2Cl)N2CCC(OCc3ccccc3)CC2)s1 (stereo not shown) [Compound 62, N-{2-[4-(benzyloxy)piperidin-1-yl]-2-(2-methyl-1,3-thiazol-5-yl)ethyl}-2-chloro-6-fluorobenzamide]
69 | 158 | O=C(NCC(c1cnco1)N1CCC(OCc2ccccc2)CC1)c1c(F)cccc1Cl (stereo not shown) [Compound 63, N-{2-[4-(benzyloxy)piperidin-1-yl]-2-(1,3-oxazol-5-yl)ethyl}-2-chloro-6-fluorobenzamide]
38 | 16 | O=C(NCC(c1cnc(C(F)(F)F)s1)N1CCC(F)(F)CC1)c1c(F)cccc1Cl (stereo not shown) [Compound 81, 2-chloro-N-[2-(4,4-difluoropiperidin-1-yl)-2-[2-(trifluoromethyl)-1,3-thiazol-5-yl]ethyl]-6-fluorobenzamide]
119 | 36 | O=C(NCC(c1cnc(CO)s1)N1CCC(F)(F)CC1)c1cc(-c2ncc(F)cn2)ccc1Cl (stereo not shown) [Compound 112]
179 | 126 | O=C(NCC(c1cnc(C2CC2)s1)N1CCC(F)(F)CC1)c1cc(-c2ncc(F)cn2)ccc1Cl (stereo not shown) [Compound 87]

The next lines start with the molecule.

SMILES | IC50 [1] [nM] | IC50 [2] [nM]
COc1cccc(C(=O)NCC(c2cncs2)N2CCC(F)(F)CC2)c1OC (stereo not shown) [Compound 21, N-[2-(4,4-difluoropiperidin-1-yl)-2-(1,3-thiazol-5-yl)ethyl]-2,3-dimethoxybenzamide] | 31 | 129
O=C(NCC(c1cncs1)N1CCOCC1)c1c(F)cccc1Cl (stereo not shown) [Compound 10, 2-chloro-6-fluoro-N(2-(morpholin-4-yl)-2-(thiazol-5-yl)-ethyl)benzamide] | 57 | 57
Cc1ncsc1C(CNC(=O)c1cccc2ncccc12)N1CCC(F)(F)CC1 (stereo not shown) [Compound 33, N-[2-(4,4-difluoropiperidin-1-yl)-2-(4-methyl-1,3-thiazol-5-yl)ethyl]quinoline-5-carboxamide] | 158 | 176
Cc1cccc(Cl)c1C(=O)NCC(c1cncs1)N1CCc2ccccc2C1 (stereo not shown) [Compound 19, 2-chloro-6-methyl-N-[2-(1,2,3,4-tetrahydroisoquinolin-2-yl)-2-(1,3-thiazol-5-yl)ethyl]benzamide] | 104 | 197
O=C(NCC(c1cscn1)N1CCC(F)(F)CC1)c1c(F)cccc1Cl (stereo not shown) [Compound 4, 2-chloro-N-[2-(4,4-difluoropiperidin-1-yl)-2-(1,3-thiazol-4-yl)ethyl]-6-fluorobenzamide] | 845 | 3300
Cc1cccc(C)c1C(=O)NCC(c1cnco1)N1CCC(F)(F)CC1 (stereo not shown) [Compound 46, N-[2-(4,4-difluoropiperidin-1-yl)-2-(1,3-oxazol-5-yl)ethyl]-2,6-dimethylbenzamide] | 18 | 55
O=C(NCC(c1cncs1)N1CCC(F)(F)CC1)c1cc(-c2ncc(F)cn2)ccc1Cl (stereo not shown) [Compound 20, 2-chloro-N-[2-(4,4-difluoropiperidin-1-yl)-2-(1,3-thiazol-5-yl)ethyl]-5-(5-fluoropyrimidin-2-yl)-benzamide] | 34 | 30
O=C(NCC(c1cncs1)N1CCC(Oc2ccccc2)CC1)c1c(F)cccc1Cl (stereo not shown) [Compound 27, 2-chloro-6-fluoro-N-[2-(4-phenoxypiperidin-1-yl)-2-(1,3-thiazol-5-yl)ethyl]benzamide] | 63 | 52
Cc1cccc(Cl)c1C(=O)NCC(c1cncs1)N1CCC(F)(F)CC1 (stereo not shown) [Compound 15, 2-chloro-N-[2-(4,4-difluoropiperidin-1-yl)-2-(1,3-thiazol-5-yl)ethyl]-6-methylbenzamide] | 8 | 38
O=C(NCC(c1nccs1)N1CCC(F)(F)CC1)c1c(F)cccc1Cl (stereo not shown) [Compound 2, 2-chloro-N-[2-(4,4-difluoro-piperidin-1-yl)-2-(1,3-thiazol-2-yl)-ethyl]-6-fluoro-benzamide] | 306 | 1300
Nc1ccc(Cl)c(C(=O)NCC(c2cncs2)N2CCC(F)(F)CC2)c1 (stereo not shown) [Compound 16, 5-amino-2-chloro-N-[2-(4,4-difluoropiperidin-1-yl)-2-(1,3-thiazol-5-yl)ethyl]benzamide] | 32 | 98
Nc1ccc(Cl)c(C(=O)NCC(c2cncs2)N2CCOCC2)c1 (stereo not shown) [Compound 12, 5-amino-2-chloro-N-[2-(morpholin-4-yl)-2-(1,3-thiazol-5-yl)ethyl]benzamide-] | 143 | 846
Cc1ncc(C(CNC(=O)c2c(F)cccc2Cl)N2CCC(F)(F)CC2)s1 (stereo not shown) [Compound 38, 2-chloro-N-[2-(4,4-difluoropiperidin-1-yl)-2-(2-methyl-1,3-thiazol-5-yl)ethyl]-6-fluorobenzamide] | 87 | 49
Cc1cccc(Cl)c1C(=O)NCC(c1cncs1)N1CCC(OCc2ccccc2)CC1 (stereo not shown) [Compound 24, N-{2-[4-(benzyloxy)piperidin-1-yl]-2-(1,3-thiazol-5-yl)ethyl}-2-chloro-6-methylbenzamide] | 111 | 44
Cc1ncc(C(CNC(=O)c2c(C)cccc2C)N2CCC(F)(F)CC2)s1 (stereo not shown) [Compound 40, N-[2-(4,4-difluoropiperidin-1-yl)-2-(2-methyl-1,3-thiazol-5-yl)ethyl]-2,6-dimethylbenzamide] | 30 | 18
Cc1ncc(C(CNC(=O)c2c(C)cccc2Cl)N2CCc3ccccc3C2)s1 (stereo not shown) [Compound 41, 2-chloro-6-methyl-N-[2-(2-methyl-1,3-thiazol-5-yl)-2-(1,2,3,4-tetrahydroisoquinolin-2-yl)ethyl]benzamide] | 853 | 996
O=C(NCC(c1cscn1)N1CCCOCC1)c1c(F)cccc1Cl (stereo not shown) [Compound 7] | 840 | 1690
Cc1cccc(C)c1C(=O)NCC(c1cncs1)N1CCC(Oc2ccccc2)CC1 (stereo not shown) [Compound 26, 2,6-dimethyl-N-[2-(4-phenoxypiperidin-1-yl)-2-(1,3-thiazol-5-yl)ethyl]benzamide] | 119 | 44
Cc1ncsc1C(CNC(=O)c1c(F)cccc1Cl)N1CCC(F)(F)CC1 (stereo not shown) [Compound 31, 2-chloro-N-[2-(4,4-difluoropiperidin-1-yl)-2-(4-methyl-1,3-thiazol-5-yl)ethyl]-6-fluorobenzamide] | 31 | 229
Nc1ccc(Cl)c(C(=O)NCC(c2cncs2)N2CCc3ccccc3C2)c1 (stereo not shown) [Compound 17, 5-amino-2-chloro-N-[2-(1,2,3,4-tetrahydroisoquinolin-2-yl)-2-(1,3-thiazol-5-yl)ethyl]benzamide] | 136 | 690
Cc1cccc(C)c1C(=O)NCC(c1scnc1C)N1CCOCC1 (stereo not shown) [Compound 36, 2,6-dimethyl-N-[2-(4-methyl-1,3-thiazol-5-yl)-2-(morpholin-4-yl)ethyl]benzamide] | 149 | 302
O=C(NCC(c1cscn1)N1CCc2ccccc2C1)c1c(F)cccc1Cl (stereo not shown) [Compound 6, 2-chloro-N-[2-(3,4-dihydro-1H-isoquinolin-2-yl)-2-(1,3-thiazol-4-yl)-ethyl]-6-fluoro-benzamide] | 800 | 1260
